Source: PubChem BioAssay (NCI)
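Exposure lasted 48 hours, with cells grown in 96-well plates and compounds tested at five concentrations. TGI is the concentration that stops growth completely.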

Assays:
Test in all cases: NCI anticancer screen, dose series, 48 h
A549 NSCLC = tested on: A549 NSCLC
BT-549 breast = tested on: BT-549 breast
CAKI-1 renal = tested on: CAKI-1 renal
CCRF-CEM leukemia = tested on: CCRF-CEM leukemia
HS 578T breast = tested on: HS 578T breast
LOX IMVI melanoma = tested on: LOX IMVI melanoma
MCF7 breast = tested on: MCF7 breast
MDA-MB-435 = tested on: MDA-MB-435
NCI/ADR-RES ovarian = tested on: NCI/ADR-RES ovarian
OVCAR-3 ovarian = tested on: OVCAR-3 ovarian
SF-295 CNS = tested on: SF-295 CNS
SK-MEL-28 melanoma = tested on: SK-MEL-28 melanoma
SK-OV-3 ovarian = tested on: SK-OV-3 ovarian
SNB-75 CNS = tested on: SNB-75 CNS
TK-10 renal = tested on: TK-10 renal
U251 CNS = tested on: U251 CNS
UACC-62 melanoma = tested on: UACC-62 melanoma
UO-31 renal = tested on: UO-31 renal
SF-539 CNS = tested on: SF-539 CNS

Row | Structure (SMILES) | TGI (A549 NSCLC) | TGI (BT-549 breast) | TGI (CAKI-1 renal) | TGI (CCRF-CEM leukemia) | TGI (HS 578T breast) | TGI (LOX IMVI melanoma) | TGI (MCF7 breast) | TGI (MDA-MB-435) | TGI (NCI/ADR-RES ovarian) | TGI (OVCAR-3 ovarian) | TGI (SF-295 CNS) | TGI (SK-MEL-28 melanoma) | TGI (SK-OV-3 ovarian) | TGI (SNB-75 CNS) | TGI (TK-10 renal) | TGI (U251 CNS) | TGI (UACC-62 melanoma) | TGI (UO-31 renal) | TGI (SF-539 CNS)
1 | CCCCS(=O)CCC(N)P(=O)(O)O (centres undefined) | > 100 µM | > 100 µM | > 100 µM | > 100 µM | > 100 µM | > 100 µM | > 100 µM | > 100 µM | > 100 µM | > 100 µM | > 100 µM | > 100 µM | > 100 µM | > 100 µM | > 100 µM | > 100 µM | > 100 µM | > 100 µM | –
2 | COc1cccc2c1OC(c1ccc(Cl)cc1)C([N+](=O)[O-])=C2 (centres undefined) | 22.5 µM | 3.38 µM | 10.7 µM | 4 µM | 13.4 µM | 2.71 µM | – | 8.68 µM | 39.5 µM | 7.08 µM | 13.4 µM | 7.19 µM | 13.6 µM | – | 16 µM | 5.77 µM | 10.4 µM | 3.44 µM | –
3 | Oc1c(C2=NNC(c3ccc(Cl)cc3Cl)C2)ccc2ccccc12 (centres undefined) | > 100 µM | > 100 µM | > 100 µM | 32.8 µM | > 100 µM | – | > 100 µM | > 100 µM | 83.3 µM | > 100 µM | > 100 µM | > 100 µM | > 100 µM | > 100 µM | > 100 µM | > 100 µM | > 100 µM | > 100 µM | > 100 µM
4 | O=Cc1cn(CCCCCCCCCCCCn2cc(C=O)c3ccccc32)c2ccccc12 | > 100 µM | > 100 µM | > 100 µM | – | > 100 µM | > 100 µM | > 100 µM | > 100 µM | > 100 µM | > 100 µM | > 100 µM | > 100 µM | > 100 µM | – | > 100 µM | > 100 µM | > 100 µM | > 100 µM | > 100 µM
5 | COc1ccc(N2C(=O)CC(C3CC(C(C)(C)C)CCC3=O)C2=O)cc1 (centres undefined) | > 100 µM | > 100 µM | > 100 µM | > 100 µM | > 100 µM | – | > 100 µM | > 100 µM | > 100 µM | – | – | > 100 µM | > 100 µM | > 100 µM | > 100 µM | > 100 µM | > 100 µM | > 100 µM | > 100 µM
6 | OCCCCCCCCCCCOc1ccc(C2OCC3(CO2)COC(c2ccc(OCCCCCCCCCCCO)cc2)OC3)cc1 (centres undefined) | > 50 µM | > 50 µM | > 50 µM | – | > 50 µM | > 50 µM | > 50 µM | > 50 µM | > 50 µM | > 50 µM | > 50 µM | > 50 µM | > 50 µM | > 50 µM | > 50 µM | > 50 µM | > 50 µM | > 50 µM | > 50 µM
7 | CN=c1nc2sc3c(c2c(NC(=S)NC)s1)CCCC3 | – | > 100 µM | > 100 µM | > 100 µM | 97.4 µM | > 100 µM | > 100 µM | > 100 µM | – | > 100 µM | > 100 µM | > 100 µM | > 100 µM | – | > 100 µM | > 100 µM | > 100 µM | > 100 µM | –
8 | CCCCC1=NNC(=O)C1 | > 100 µM | > 100 µM | > 100 µM | > 100 µM | > 100 µM | – | > 100 µM | > 100 µM | > 100 µM | > 100 µM | > 100 µM | > 100 µM | > 100 µM | > 100 µM | – | > 100 µM | > 100 µM | > 100 µM | > 100 µM
9 | CC(C)(C)[Si](C)(C)OCC1OC(n2ccc(N)nc2=O)C(O[Si](C)(C)C(C)(C)C)C1O[Si](C)(C)C(C)(C)C (centres undefined) | 11.6 µM | 3.73 µM | – | – | 7.89 µM | 3.23 µM | 5.33 µM | – | > 100 µM | 3.3 µM | 3.75 µM | – | 6.36 µM | 14.2 µM | – | – | 3.64 µM | 3.07 µM | –
10 | COc1cc(OC)c(-c2ccc(OCc3ccccc3)c3c(OC)cc(C)cc23)c2c1C(C)=N[C@H](C)C2 | 4.22 µM | 7.93 µM | > 12.5 µM | 4.36 µM | 4.41 µM | 3.65 µM | – | 4.12 µM | 3.92 µM | 4.08 µM | 3.78 µM | 4.38 µM | 4.03 µM | 4.04 µM | 3.43 µM | 3.91 µM | 3.84 µM | 2.63 µM | 4.32 µM
11 | CC1(C)CC(=O)c2[nH]c3ccccc3c2CC(=O)NCCc2cn1cn2 | > 100 µM | > 100 µM | > 100 µM | – | > 100 µM | > 100 µM | > 100 µM | > 100 µM | > 100 µM | > 100 µM | > 100 µM | > 100 µM | > 100 µM | > 100 µM | > 100 µM | > 100 µM | > 100 µM | > 100 µM | > 100 µM
12 | Cc1cc(C)nc(NC(=O)c2ccc(Br)s2)c1 | > 100 µM | > 100 µM | > 100 µM | 15.6 µM | – | > 100 µM | > 100 µM | > 100 µM | > 100 µM | > 100 µM | > 100 µM | > 100 µM | > 100 µM | > 100 µM | > 100 µM | > 100 µM | > 100 µM | > 100 µM | > 100 µM
13 | OCC1OC(c2cccc3cc(O)c(O)cc23)CC1O (centres undefined) | > 100 µM | > 100 µM | – | – | > 100 µM | > 100 µM | > 100 µM | > 100 µM | > 100 µM | > 100 µM | > 100 µM | > 100 µM | > 100 µM | > 100 µM | > 100 µM | > 100 µM | > 100 µM | > 100 µM | > 100 µM
14 | CC(C)(C)OC(=O)N1CCc2[nH][nH]c(=O)c2C1 | > 100 µM | > 100 µM | > 100 µM | > 100 µM | > 100 µM | – | > 100 µM | > 100 µM | > 100 µM | > 100 µM | > 100 µM | > 100 µM | > 100 µM | – | > 100 µM | > 100 µM | > 100 µM | > 100 µM | > 100 µM
15 | CC(C)(Cl)C(Br)CCC(C)(Cl)C(Br)CBr (centres undefined) | > 100 µM | 42.9 µM | – | 76.9 µM | 82.9 µM | – | 41.7 µM | 73.6 µM | 68 µM | 41.9 µM | 46 µM | 79.7 µM | > 100 µM | 93.9 µM | 99.6 µM | 69.5 µM | > 100 µM | > 100 µM | 49.7 µM
16 | Nc1ccc2c(c1)N(C(=O)c1cc3cc(NC(=O)c4cc5ccccc5o4)ccc3[nH]1)CC2CCl (centres undefined) | > 34.1 µM | 1.9 µM | 12.9 µM | – | 0.696 µM | > 100 µM | 2.38 µM | 0.512 µM | 0.338 µM | 0.56 µM | – | 0.502 µM | > 33.4 µM | 0.469 µM | 2.07 µM | 12 µM | 0.794 µM | 13.1 µM | –
17 | CCCCc1c(N(C)C)c(OC(C)=O)c(-c2cn(C)c3ccccc23)oc1=O | > 100 µM | 72.2 µM | > 100 µM | > 100 µM | > 100 µM | – | 39.6 µM | 47.8 µM | 56.3 µM | 67.9 µM | > 100 µM | 57.9 µM | > 100 µM | 86 µM | > 100 µM | 64 µM | 40.7 µM | 53 µM | 47.5 µM
18 | Nc1ccc(Oc2ccc(C34CC5CC6C3CC3CC4C(C5)C6(c4ccc(Oc5ccc(N)cc5)cc4)C3)cc2)cc1 | > 83.8 µM | > 82.8 µM | 48 µM | > 63.6 µM | > 67.5 µM | > 76.1 µM | > 100 µM | 19 µM | > 100 µM | 29.7 µM | 81.4 µM | > 81.2 µM | 53.9 µM | – | > 68.6 µM | 14.9 µM | > 87.9 µM | > 100 µM | –
19 | CC(C)(Br)C(Br)CCC1(C2CO2)CO1 (centres undefined) | > 5 µM | > 5 µM | > 5 µM | > 5 µM | > 5 µM | – | > 5 µM | > 5 µM | > 5 µM | > 5 µM | > 5 µM | > 5 µM | > 5 µM | > 5 µM | – | > 5 µM | – | > 5 µM | > 5 µM
20 | Nc1c2c(nc3cc(F)c(F)cc13)CCC2 | > 100 µM | > 100 µM | > 100 µM | – | > 100 µM | > 100 µM | > 100 µM | > 100 µM | > 100 µM | > 100 µM | > 100 µM | > 100 µM | > 100 µM | > 100 µM | 77.7 µM | > 100 µM | > 100 µM | 20.7 µM | > 100 µM
21 | N#Cc1nc2ccccc2nc1N1CCN(c2ccc([N+](=O)[O-])cc2)CC1 | > 100 µM | > 100 µM | > 100 µM | > 100 µM | > 100 µM | > 100 µM | > 100 µM | > 100 µM | > 100 µM | – | > 100 µM | > 100 µM | > 100 µM | > 100 µM | > 100 µM | > 100 µM | > 100 µM | > 100 µM | –
